Here are results for 20 substances from patent US20230049549A1, “PEPTIDE COMPOUNDS AND METHODS OF TREATING DISEASES USING SAME” (Immunity Pharma Ltd., priority 2020, published 2023).

In this assay the test system is BALB/c mice. Kind of assay: Rescue from dexamethasone-induced spleen and thymus weight and cell loss in mice. It is filed as in vivo, mouse. As to conditions: for Average: average of spleen weight, spleen cell number, thymus weight, thymus cell number, Normal = 100%, DEXA alone 47%; for Thymus Cell number: relative to Normal mice = 100% (DEXA alone 23%); for Thymus Cell number / Thymus Weight / Spleen Cell number / Spleen Weight: dexamethasone 100 μg IP, peptide 200 μg/mouse IV immediately and 24 hours after, sacrificed 48 hours; for Thymus Weight: relative to Normal mice = 100% (DEXA alone 44%); for Spleen Cell number: relative to Normal mice = 100% (DEXA alone 59%); for Spleen Weight: relative to Normal mice = 100% (DEXA alone 62%). As to the method:
Dexamethasone is a corticosteroid medication that induces apoptosis of immune cells and lymphomyeloid tissues. BALB/c mice were used to examine the ability of candidate peptides to rescue lymphocyte cells from apoptosis. Mice were injected IP with 100 μg of Dexamethasone. Dexamethasone-treated mice received immediately following and 24-hours after dexamethasone treatment IV injection of candidate peptides (200 μg peptide/mouse). Mice were sacrificed 48 hours after the first treatment. The spleen and the thymus were weighted and full cell count of both organs was performed.
Peptides used in the screen were SEQ ID NOs: 1-13. The peptide of SEQ ID NO: 42 was used as a positive control. The peptides set forth in SEQ ID NOs: 35-41 were used as negative controls.

Where no end group is shown, it is not given here. [ ]: non-standard residue; d: D form. dimethylproline = dimethylproline (dMP); Aib = CC(C)(N)C(=O)O

Regarding 1 (LPPL[Aib]YP) [compound 1], the Average turned out to be 65%, the “Thymus Cell number” value is reported as 28%, the “Thymus Weight” value came out at 59% and the “Spleen Cell number” value is 82%. Further, the “Spleen Weight” value worked out at 89%.

Consider 2 (LPPLPY[Aib]) [compound 2], for which the Average came out at 65%, the “Thymus Cell number” value came to 25%, the “Thymus Weight” value amounted to 61% and the “Spleen Cell number” value is recorded as 85%. Also, the “Spleen Weight” value came to 89%.

Turning to “4 ([dP]PL[Aib]Y-NH2; N-terminus assumed; SMILES CC(C)C[C@H](NC(=O)[C@@H]1CCCN1C(=O)[C@H]1CCCN1)C(=O)NC(C)(C)C(=O)N[C@@H](Cc1ccc(O)cc1)C(N)=O) [compound 4]”, the Average came to 61%, the “Thymus Cell number” value amounted to 31%, the “Thymus Weight” value stood at 55% and the “Spleen Cell number” value stood at 82%. For the same substance, the “Spleen Weight” value was 77%.

For “5 ([dL]PPH[Aib]Y-NH2; N-terminus assumed; SMILES CC(C)C[C@@H](N)C(=O)N1CCC[C@H]1C(=O)N1CCC[C@H]1C(=O)N[C@@H](Cc1c[nH]cn1)C(=O)NC(C)(C)C(=O)N[C@@H](Cc1ccc(O)cc1)C(N)=O) [compound 5]”, the Average is 68%, the “Thymus Cell number” value is 49%, the “Thymus Weight” value is given as 52% and the “Spleen Cell number” value turned out to be 91%. Also, the “Spleen Weight” value worked out at 81%.

Regarding 6 (LPP[dL]PYP) [compound 6], the Average worked out at 58%, the “Thymus Cell number” value turned out to be 23%, the “Thymus Weight” value came to 48% and the “Spleen Cell number” value stood at 80%. Besides, the “Spleen Weight” value is reported as 80%.

Regarding “7 (L[dimethylproline]PLPYP) [compound 7]”, the Average is given as 67%, the “Thymus Cell number” value is 29%, the “Thymus Weight” value came to 72% and the “Spleen Cell number” value turned out to be 82%. The “Spleen Weight” value is 84%.

On to 8 (LPPVPYP) [compound 8], for which the Average turned out to be 60%, the “Thymus Cell number” value worked out at 30%, the “Thymus Weight” value is recorded as 53% and the “Spleen Cell number” value is given as 82%. Also, the “Spleen Weight” value was 76%.

With 9 (LPPSPYP) [compound 9], the Average is recorded as 61%, the “Thymus Cell number” value was 31%, the “Thymus Weight” value was 55% and the “Spleen Cell number” value came out at 82%. Also, the “Spleen Weight” value came out at 76%.

For the substance 10 (LPPHPYP) [compound 10], the Average is on record as 65%, the “Thymus Cell number” value came to 33%, the “Thymus Weight” value amounted to 56% and the “Spleen Cell number” value came to 85%. In addition, the “Spleen Weight” value amounted to 84%.

As for 11 ([dL]PPHPYP) [compound 11], the Average turned out to be 68%, the “Thymus Cell number” value worked out at 49%, the “Thymus Weight” value is 52% and the “Spleen Cell number” value was found to be 91%. The “Spleen Weight” value came to 81%.

On to 12 ([dL]P[Aib]LAYP) [compound 12], for which the Average is reported as 72%, the “Thymus Cell number” value was determined as 51%, the “Thymus Weight” value was determined as 63% and the “Spleen Cell number” value stood at 85%. Further, the “Spleen Weight” value was 89%.

On to “13 (LP[dimethylproline]LPYP) [compound 13]”, for which the Average is 65%, the “Thymus Cell number” value is on record as 44%, the “Thymus Weight” value is 49% and the “Spleen Cell number” value is 84%. In addition, the “Spleen Weight” value is recorded as 82%.

Regarding 35 (LPPH[Aib]YP) [compound 35], the Average amounted to 52%, the “Thymus Cell number” value amounted to 39%, the “Thymus Weight” value came to 42% and the “Spleen Cell number” value was 65%. The “Spleen Weight” value was determined as 62%.

For 36 ([dL]PPH[Aib]YP) [compound 36], the Average is 54%, the “Thymus Cell number” value was found to be 40%, the “Thymus Weight” value is reported as 43% and the “Spleen Cell number” value is on record as 69%. Also, the “Spleen Weight” value was 64%.

As to “37 (Ac-PPL[Aib]Y-NH2; SMILES CC(=O)N1CCC[C@H]1C(=O)N1CCC[C@H]1C(=O)N[C@@H](CC(C)C)C(=O)NC(C)(C)C(=O)N[C@@H](Cc1ccc(O)cc1)C(N)=O) [compound 37]”, the Average worked out at 55%, the “Thymus Cell number” value is given as 24%, the “Thymus Weight” value came out at 48% and the “Spleen Cell number” value came out at 77%. In addition, the “Spleen Weight” value is recorded as 69%.

Consider 38 ([dL]PPL[Aib]YP) [compound 38], for which the Average turned out to be 52%, the “Thymus Cell number” value came out at 24%, the “Thymus Weight” value is on record as 50% and the “Spleen Cell number” value came out at 66%. The “Spleen Weight” value is recorded as 67%.

In the case of 39 ([dL]PPL[Aib]Y) [compound 39], the Average was 55%, the “Thymus Cell number” value stood at 27%, the “Thymus Weight” value is 50% and the “Spleen Cell number” value came to 73%. Moreover, the “Spleen Weight” value is recorded as 69%.

With 40 ([dL]PPLAY) [compound 40], the Average amounted to 55%, the “Thymus Cell number” value was determined as 34%, the “Thymus Weight” value turned out to be 41% and the “Spleen Cell number” value is recorded as 72%. For the same substance, the “Spleen Weight” value was 72%.

41 ([dL]PPLAY[Aib]) [compound 41]: the Average turned out to be 51%, the “Thymus Cell number” value was 25%, the “Thymus Weight” value was determined as 49% and the “Spleen Cell number” value stood at 61%. Moreover, the “Spleen Weight” value amounted to 69%.

On to 42 (LPPLPYP) [compound 42], for which the Average is recorded as 59%, the “Thymus Cell number” value is reported as 34%, the “Thymus Weight” value was found to be 47% and the “Spleen Cell number” value is recorded as 78%. Also, the “Spleen Weight” value is reported as 79%.
